{"source": "patent US10662194B2", "about": "“Substituted 6-anilino-9-heterocyclylpurine derivatives for inhibition of plant stress” (UNIVERZITA PALACKEHO V OLOMOUCI, priority 2014, dated 2020)", "key": {"[1]": {"system": "winter wheat variety Diadem", "experiment": "Seed coating, tillering of winter wheat (field experiment)", "type": "in vivo", "conditions": "for Number of medium tillers (% of control) / Number of productive tillers (% of control) / Number of weak tillers (% of control): Olomouc, 2012", "procedure": "To evaluate the effect of seed coating with compound 12 on morphological yield forming traits of winter wheat field plot experiment was performed in year 2012 on locality Olomouc, Czech Republic. Seeds of winter weat bakery variety Diadem (Selgen) were coated with 10 and 50 μM concentration of compound 12 mixed into seed treatment agent Cruiser 350FS (Syngenta; 10 L of solution per 1000 kg of seeds), seeds coated with only Cruiser 350FS were used for control variant. The seeds were dried and then sown in the sowing rate 3.500.000 seeds per hectare in 4 replications per each variant in randomized positions (each replication was 10 square meter plot). The plants were analyzed for number of productive tillers, medium tillers and weak tillers."}, "[2]": {"system": "winter rapeseed variety Benefit", "experiment": "Seed coating, emergence and freezing tolerance of winter rapeseed (field experiment)", "type": "in vivo", "conditions": "50 μM seed coating", "procedure": "To evaluate the effect of seed coating with compound 12 on yield forming traits of winter rapeseed field plot experiment was performed in season 2010/2011 on locality Opava, Czech Republic. Seeds of winter rapeseed variety Benefit (Selgen) were coated with 50 μM concentration of compound 12 mixed into the seed coating treatment Cruiser OSR (Syngenta; 15 L of solution per 1000 kg of seeds), seeds coated with only Cruiser OSR were used for control variant. The seeds were dried and then sown in the sowing rate 700.000 seeds per hectare in 4 replications per each variant in randomized positions (each replication was 10 square meter plot). In the experiment plant emergence, freezing tolerance and final seed yield were scored. The frost tolerance was estimated by method described in (Janáček, J., Prášil, I.: Quantification of plant frost injury by nonlinear fitting of an s-shaped function. Cryo-Letters vol. 12, 1991, no. 7, 47-52)."}, "[3]": {"system": "CKX1 overproducing (35S:CKX1) Arabidopsis seedlings", "experiment": "In vitro shoot and root growth of cytokinin deficient Arabidopsis plants", "type": "in vivo", "description": "Constitutive overexpression of CKX in 35S:CKX1 plants leads to enhanced root growth. If CKX inhibitor can restore WT phenotype, it is expected that inhibition of the CKX activity in 35S:AtCKX1 plants should thus have no effect or inhibit their root growth. Such observation was done in case of INCYDE, but not compound 12."}, "[4]": {"target": "T1, recombinant AtCKX2 (Arabidopsis thaliana, UniProt Q9FUJ3)", "T1 construct": "made in house; host or cells: S. cerevisiae strain 23344c ura-", "T1 sequence (Q9FUJ3 23-501)": "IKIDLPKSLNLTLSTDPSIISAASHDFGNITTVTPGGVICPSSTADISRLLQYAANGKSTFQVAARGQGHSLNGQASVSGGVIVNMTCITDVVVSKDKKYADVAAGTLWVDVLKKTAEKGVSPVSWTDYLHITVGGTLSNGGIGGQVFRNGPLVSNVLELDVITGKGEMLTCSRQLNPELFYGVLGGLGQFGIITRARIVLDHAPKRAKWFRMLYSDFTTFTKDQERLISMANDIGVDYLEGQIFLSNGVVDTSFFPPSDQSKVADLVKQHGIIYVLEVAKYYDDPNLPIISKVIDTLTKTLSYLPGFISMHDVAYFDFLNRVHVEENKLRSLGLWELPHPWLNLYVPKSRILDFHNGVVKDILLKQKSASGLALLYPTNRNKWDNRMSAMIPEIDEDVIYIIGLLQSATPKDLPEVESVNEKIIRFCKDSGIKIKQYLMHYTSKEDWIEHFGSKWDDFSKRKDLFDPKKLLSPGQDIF", "experiment": "Inhibition of cytokinin oxidase/dehydrogenase activity (PMS/MTT microtitre assay)", "type": "biochemical", "procedure": "IC50 measurements were done using the assay in microtitre plate. Each well contained 100 μL of PMS/MTT [phenazine methosulfate/3-(4,5-dimethylthiazol-2-yl)-2,5-diphenyltetrazolium bromide] reaction mixture (final concentrations: 0.1 M KH2PO4, pH 7.4, 1 mM MTT, 0.2 mM PMS) containing the tested compound (3×10^−7 M-3×10^−4 M) and 30 μM N^6-isopentenyladenine (iP) as a substrate. 100 μL of cell-free growth medium of S. cerevisiae strain 23344c ura^− harboring the plasmid pYES2-AtCKX2 was directly used as a source of AtCKX2. Plates were incubated in the dark for 30 min at 37° C. and the enzymatic reaction was stopped by 25 μL of 35% acetic acid. The absorbance at 578 nm was measured using spectrophotometer Tecan. Absorbance of the sample without iP was subtracted.\nThe IC50 value, the compound concentration that inhibits the enzyme activity to 50%, was calculated from the obtained dose response curves. The values shown in Table 7 are means of three replicates and the entire test was repeated at least twice. […] Compound 12 is an effective inhibitor of AtCKX2 activity, app. 3-times stronger that thidiazuron and only app. 3-times weaker than the structurally related compound INCYDE (2-chloro-6-(3-methoxyanilino)purine)."}, "[5]": {"system": "wild-type Arabidopsis plants", "experiment": "In vitro root growth of wild-type Arabidopsis plants", "type": "in vivo", "conditions": "0.1 μM in MS medium, FIG. 6", "procedure": "As shown in previous example presence of compound 12 in the growth medium has positive effect on the root growth of cytokinin-deficient Arabidopsis plants. This effect was further studied using wild-type Arabidopsis plants and compared with biologically and structurally relevant compounds, a cytokinin BAP and a CKX inhibitor INCYDE. […] Arabidopsis seedlings were grown in vitro on a standard MS medium containing 0.1 μM cytokinin BAP, the same concentration of compound 12 and the same concentration of CKX inhibitor INCYDE (2-chloro-6-(3-methoxyanilino)purine)."}}, "note": "Marks after values point to notes of the source that are not given here.", "data": [{"molecule": "COc1cccc(Nc2nc(Cl)nc3c2ncn3C2CCCCO2)c1", "note": "(centres unmarked) [compound 12, 2-chloro-6-(3-methoxyanilino)-9-(tetrahydropyran-2-yl)purine]", "values": [{"measurement": "Number of medium tillers (% of control)", "setting": "[1]; 10 μM", "value": "75.0* % of control"}, {"measurement": "Number of productive tillers (% of control)", "setting": "[1]; 10 μM", "value": "106.5 % of control"}, {"measurement": "Number of weak tillers (% of control)", "setting": "[1]; 10 μM", "value": "102.2 % of control"}, {"measurement": "Number of medium tillers (% of control)", "setting": "[1]; 50 μM", "value": "78.1* % of control"}, {"measurement": "Number of productive tillers (% of control)", "setting": "[1]; 50 μM", "value": "124.2** % of control"}, {"measurement": "Number of weak tillers (% of control)", "setting": "[1]; 50 μM", "value": "80.4 % of control"}, {"measurement": "number of productive tillers compared to untreated control", "setting": "[1]; 10 and 50 μM", "value": "106-124%"}, {"measurement": "Estimated frost resistence (atrifical frost test) - Letal Temperature LT50", "setting": "[2]", "value": "−12.3 *"}, {"measurement": "Number of emerged plants per sq meter - autumn (11th October, 2010)", "setting": "[2]", "value": 60.0, "unit": "per sq meter"}, {"measurement": "Plant height (cm) - autumn (11th October, 2010)", "setting": "[2]", "value": 6.6, "unit": "cm"}, {"measurement": "Seed yield (% of control)", "setting": "[2]", "value": "103.1 % of control"}, {"measurement": "increase of artificially estimated frost tolerance", "setting": "[2]", "value": "~5", "unit": "%"}, {"measurement": "increase of the final seed yield", "setting": "[2]", "value": 3.1, "unit": "%"}, {"measurement": "more plants emerged in the same time compared to control", "setting": "[2]", "value": "~20", "unit": "%"}, {"measurement": "Leafs weight - autumn (22th October)", "setting": "[2]; 15 plants", "value": "11.69**"}, {"measurement": "Root lenght (cm) - autumn (22th October)", "setting": "[2]; 15 plants", "value": 14.63, "unit": "cm"}, {"measurement": "Seed yield (t/ha)", "setting": "[2]; mean from 4 plots", "value": 5.98, "unit": "t/ha"}, {"measurement": "complementation of wild type shoot phenotype", "setting": "[3]; 0.1 μM in MS medium, FIG. 3, 4", "value": "led to restauration of wild type shoot phenotype"}, {"measurement": "root biomass of 35S:CKX1 plants", "setting": "[3]; tested concentration range, FIG. 5", "value": "strong dose-dependent positive effect"}, {"measurement": "AtCKX2 inhibition, times stronger than thidiazuron", "setting": "[4]", "value": "~3", "unit": "times"}, {"measurement": "AtCKX2 inhibition, times weaker than INCYDE", "setting": "[4]", "value": "~3", "unit": "times"}, {"measurement": "IC50", "setting": "[4]; 30 μM iP substrate, 30 min, 37° C., read-out: IC50", "value": 19.5, "unit": "µM"}, {"measurement": "root growth", "setting": "[5]", "value": "positive effect on the root length and lateral branching"}]}]}
